{"source": "paper PMC4433244", "about": "“Interaction of cCMP with the cGK, cAK and MAPK Kinases in Murine Tissues” (PLoS ONE, 2015)", "key": {"cAKRIα": {"molecular_target": "T1, cAKRIα (Mus musculus, UniProt Q9DBC7)", "T1 construct": "gene Prkar1a; endogenous regulatory subunit in lung tissue lysate", "T1 sequence (Q9DBC7 2-381)": "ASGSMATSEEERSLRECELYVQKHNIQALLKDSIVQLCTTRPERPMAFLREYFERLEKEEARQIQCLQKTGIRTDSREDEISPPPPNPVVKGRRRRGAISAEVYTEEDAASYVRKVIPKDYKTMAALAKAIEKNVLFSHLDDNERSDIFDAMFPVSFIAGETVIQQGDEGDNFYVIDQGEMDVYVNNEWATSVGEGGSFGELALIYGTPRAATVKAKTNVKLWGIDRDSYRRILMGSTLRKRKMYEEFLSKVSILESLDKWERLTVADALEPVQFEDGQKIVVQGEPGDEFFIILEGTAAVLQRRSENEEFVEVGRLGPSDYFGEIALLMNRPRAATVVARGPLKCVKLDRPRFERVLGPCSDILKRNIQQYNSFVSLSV", "assay": "4-AH-cCMP agarose affinity chromatography competed by free cCMP; mass spectrometry and immunoblot (cAKRIα/β antibody)", "format": "cell-based"}, "cGKII": {"molecular_target": "T2, cGKII (Mus musculus, UniProt Q61410)", "T2 construct": "gene Prkg2; recombinant murine cGKII expressed in SF9 cells", "T2 sequence (Q61410 2-762)": "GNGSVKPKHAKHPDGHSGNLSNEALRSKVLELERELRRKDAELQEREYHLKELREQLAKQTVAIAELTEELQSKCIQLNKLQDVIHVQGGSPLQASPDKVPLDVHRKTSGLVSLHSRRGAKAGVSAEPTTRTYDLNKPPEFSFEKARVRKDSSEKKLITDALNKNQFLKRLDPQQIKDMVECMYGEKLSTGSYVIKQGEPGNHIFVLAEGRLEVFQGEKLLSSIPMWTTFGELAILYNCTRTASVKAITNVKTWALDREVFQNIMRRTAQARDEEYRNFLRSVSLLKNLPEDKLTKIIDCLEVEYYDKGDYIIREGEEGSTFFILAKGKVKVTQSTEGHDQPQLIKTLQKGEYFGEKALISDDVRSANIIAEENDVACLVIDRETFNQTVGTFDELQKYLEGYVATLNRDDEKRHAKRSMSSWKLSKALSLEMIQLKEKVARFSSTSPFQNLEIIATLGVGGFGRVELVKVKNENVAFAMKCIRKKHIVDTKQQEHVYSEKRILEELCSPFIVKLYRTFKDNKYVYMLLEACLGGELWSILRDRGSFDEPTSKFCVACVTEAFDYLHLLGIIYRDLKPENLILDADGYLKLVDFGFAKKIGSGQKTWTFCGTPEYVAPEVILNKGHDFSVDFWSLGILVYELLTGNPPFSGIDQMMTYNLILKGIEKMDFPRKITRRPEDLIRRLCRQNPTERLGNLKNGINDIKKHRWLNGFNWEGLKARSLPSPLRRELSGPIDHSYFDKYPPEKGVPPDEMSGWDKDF", "assay": "(γ-32P) ATP kinase assay with IRAGtide, activation of purified enzyme", "format": "biochemical"}, "cGKI": {"molecular_target": "T3, cGKI (Mus musculus, UniProt P0C605)", "T3 construct": "gene Prkg1", "T3 sequence (P0C605 2-671)": "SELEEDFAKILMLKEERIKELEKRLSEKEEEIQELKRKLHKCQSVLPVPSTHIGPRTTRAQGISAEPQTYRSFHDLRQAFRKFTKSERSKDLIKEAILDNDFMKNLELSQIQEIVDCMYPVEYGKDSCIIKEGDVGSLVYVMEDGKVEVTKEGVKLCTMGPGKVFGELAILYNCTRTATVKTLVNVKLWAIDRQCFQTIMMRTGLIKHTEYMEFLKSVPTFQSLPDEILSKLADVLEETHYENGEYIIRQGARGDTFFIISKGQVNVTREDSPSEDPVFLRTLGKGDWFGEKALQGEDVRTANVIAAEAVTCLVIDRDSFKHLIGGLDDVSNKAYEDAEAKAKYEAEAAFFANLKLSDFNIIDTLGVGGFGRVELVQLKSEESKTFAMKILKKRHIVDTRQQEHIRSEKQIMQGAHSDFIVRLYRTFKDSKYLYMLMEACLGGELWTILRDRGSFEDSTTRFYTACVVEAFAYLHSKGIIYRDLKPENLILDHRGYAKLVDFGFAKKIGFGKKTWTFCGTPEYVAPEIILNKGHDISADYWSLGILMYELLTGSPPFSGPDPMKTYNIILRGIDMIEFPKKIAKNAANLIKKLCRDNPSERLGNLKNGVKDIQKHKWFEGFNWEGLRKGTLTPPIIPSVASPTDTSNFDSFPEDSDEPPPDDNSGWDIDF"}}}
{"compound": "Nc1ccn([C@@H]2O[C@@H]3COP(=O)(O)O[C@H]3[C@H]2O)c(=O)n1", "note": "[cCMP]", "values": [{"measurement": "4-AH-cCMP agarose affinity chromatography competed by free cCMP; mass spectromet", "setting": "cAKRIα", "result": "Specific binding of cCMP to cAKRIα/β was also detected."}, {"measurement": "EC50", "setting": "cGKII", "result": "110 ± 8", "unit": "µM"}]}
{"compound": "Nc1nc2c(ncn2[C@@H]2O[C@@H]3COP(=O)(O)O[C@H]3[C@H]2O)c(=O)[nH]1", "note": "[cGMP]", "values": [{"measurement": "EC50", "setting": "cGKI", "result": "2 ± 0.5", "unit": "µM"}]}
